Results from patent US20200246316A1, “METHODS OF TREATING POST-SURGICAL PAIN WITH A THIAZOLINE ANTI-HYPERALGESIC AGENT” (CERSCI THERAPEUTICS, INC., priority 2019, published 2020).
Structures can show the parent of a compound that is named as a salt. Where two headings read alike, the source gives them in different places.

How the values were obtained:
[1] = Rat 28-day GLP repeat dose PO study (toxicokinetics); type: in vivo; settings: rat, in vivo, po; for Cmax / Vd/F / half-life / Tmax / AUC / AUC(0-inf) / CL/F: male; for Cmax: read-out: Cmax; for half-life: read-out: t1/2 (converted); for Tmax: read-out: tmax
Procedure: The vehicle was 0.5% HPMC. There were 15 rats/sex in the control and high dose groups (5/sex for a 14-day recovery period) while the low and mid doses consisted of 10 rats/sex. Satellite groups of rats/sex/group for toxicokinetics were included.
Rats in Group 1 (Vehicle Control) were bled once at approximately 1 hour post-dose on those days.

[2] = system: mouse incisional model; assay: Mouse incisional model (mimicking the Brennan protocol); type: in vivo; settings: 10 mg/kg IP QD, Days 1 and 3 after incision
Procedure: In a mouse incisional model (mimicking the Brennan protocol), animals were baselined for mechanical thresholds prior to incision and then given a daily dose of Compound 1 (10 mg/kg IP QD) or vehicle for 7 days.

[3] = Dog 28-day repeat dose PO study; type: in vivo
Procedure: Beagle dogs (4/sex/group plus 2/sex/group for control and high dose animals for recovery) were administered daily doses of 0, 100, 250 or 400 mg/kg/day of Compound 1 in 0.5% HPMC. […] Dogs in Group 1 (Vehicle Control) were bled once at approximately 2-4 hours post-dose on those days.

[4] = target: T1, OAT1 (Homo sapiens, UniProt Q4U2R8); assay: Inhibition of uptake (SLC) transporters; type: in vitro ADME
T1 construct: expressed in transfected cells; host or cells: HEK293 cells
T1 sequence (Q4U2R8 whole entry): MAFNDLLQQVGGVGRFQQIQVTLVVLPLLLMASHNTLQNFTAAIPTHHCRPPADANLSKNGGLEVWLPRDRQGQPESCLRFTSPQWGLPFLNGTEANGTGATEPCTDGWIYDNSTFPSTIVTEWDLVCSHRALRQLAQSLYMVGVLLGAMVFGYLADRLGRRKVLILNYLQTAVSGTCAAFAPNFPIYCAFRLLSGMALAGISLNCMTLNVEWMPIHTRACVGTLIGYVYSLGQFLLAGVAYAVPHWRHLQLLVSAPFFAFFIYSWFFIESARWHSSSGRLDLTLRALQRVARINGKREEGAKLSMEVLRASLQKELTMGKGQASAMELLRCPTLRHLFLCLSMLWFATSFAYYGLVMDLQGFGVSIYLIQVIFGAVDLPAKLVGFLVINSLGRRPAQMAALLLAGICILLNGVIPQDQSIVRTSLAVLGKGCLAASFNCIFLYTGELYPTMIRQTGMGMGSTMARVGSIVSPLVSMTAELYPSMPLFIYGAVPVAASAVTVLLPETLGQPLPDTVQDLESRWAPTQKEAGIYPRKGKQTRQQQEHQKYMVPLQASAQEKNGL

[5] = 500 mg/kg, Day 14, M, 500 mg/kg PO
[6] = 500 mg/kg, Day 28, M, 500 mg/kg PO
[7] = 1000 mg/kg, Day 1, M, 1000 mg/kg PO
[8] = 1000 mg/kg, Day 14, M, 1000 mg/kg PO
[9] = 1000 mg/kg, Day 28, M, 1000 mg/kg PO
[10] = 2000 mg/kg, Day 1, M, 2000 mg/kg PO
[11] = 2000 mg/kg, Day 14, M, 2000 mg/kg PO
[12] = 2000 mg/kg, Day 28, M, 2000 mg/kg PO

SMILES: CC1(C)SC(Nc2ccccc2O)=N[C@@H]1C(=O)O [Compound 1, (R)-2-(2-hydroxyphenylamino)-5,5-dimethyl-4,5-dihydrothiazole-4-carboxylic acid mono-hydrochloride]
- Cmax [1, 5]: 45.8 µg/mL
- Vd/F ([1]; 500 mg/kg, Day 14, M, 500 mg/kg PO, read-out: V/F (Vss/F)): 18.5 L/kg
- half-life [1, 5]: 6.27 h
- Tmax [1, 5]: 1 h
- AUC [1, 6]: 305 µg·h/mL
- AUC(0-inf) [1, 6]: 333 µg·h/mL
- CL/F ([1]; 500 mg/kg, Day 28, M, 500 mg/kg PO, read-out: CL/F (CLss/F) (converted)): 27.3 mL/min/kg
- Cmax [1, 6]: 48.6 µg/mL
- Vd/F ([1]; 500 mg/kg, Day 28, M, 500 mg/kg PO, read-out: V/F (Vss/F)): 16.4 L/kg
- half-life [1, 6]: 6.9 h
- Tmax [1, 6]: 1 h
- CL/F ([1]; 1000 mg/kg): 56.8 mL/min/kg
- AUC [1, 7]: 456 µg·h/mL
- AUC(0-inf) [1, 7]: 460 µg·h/mL
- CL/F ([1]; 1000 mg/kg, Day 1, M, 1000 mg/kg PO, read-out: CL/F (CLz/F) (converted)): 36.2 mL/min/kg
- Cmax [1, 7]: 52.7 µg/mL
- Vd/F ([1]; 1000 mg/kg, Day 1, M, 1000 mg/kg PO, read-out: V/F (Vz/F)): 10.9 L/kg
- half-life [1, 7]: 3.46 h
- Tmax [1, 7]: 1 h
- AUC [1, 8]: 293 µg·h/mL
- AUC(0-inf) [1, 8]: 296 µg·h/mL
- Cmax [1, 8]: 51.9 µg/mL
- Vd/F ([1]; 1000 mg/kg, Day 14, M, 1000 mg/kg PO, read-out: V/F (Vss/F)): 18.1 L/kg
- half-life [1, 8]: 3.68 h
- Tmax [1, 8]: 1 h
- AUC [1, 9]: 334 µg·h/mL
- AUC(0-inf) [1, 9]: 337 µg·h/mL
- CL/F ([1]; 1000 mg/kg, Day 28, M, 1000 mg/kg PO, read-out: CL/F (CLss/F) (converted)): 49.8 mL/min/kg
- Cmax [1, 9]: 47.9 µg/mL
- Vd/F ([1]; 1000 mg/kg, Day 28, M, 1000 mg/kg PO, read-out: V/F (Vss/F)): 14.3 L/kg
- half-life [1, 9]: 3.31 h
- CL/F ([1]; 2000 mg/kg): 47.7 mL/min/kg
- AUC [1, 10]: 768 µg·h/mL
- AUC(0-inf) [1, 10]: 771 µg·h/mL
- CL/F ([1]; 2000 mg/kg, Day 1, M, 2000 mg/kg PO, read-out: CL/F (CLz/F) (converted)): 43.2 mL/min/kg
- Cmax [1, 10]: 83.1 µg/mL
- Vd/F ([1]; 2000 mg/kg, Day 1, M, 2000 mg/kg PO, read-out: V/F (Vz/F)): 10.5 L/kg
- half-life [1, 10]: 2.81 h
- AUC [1, 11]: 701 µg·h/mL
- AUC(0-inf) [1, 11]: 709 µg·h/mL
- Cmax [1, 11]: 75.6 µg/mL
- Vd/F ([1]; 2000 mg/kg, Day 14, M, 2000 mg/kg PO, read-out: V/F (Vss/F)): 15.1 L/kg
- half-life [1, 11]: 3.66 h
- Tmax [1, 11]: 1 h
- AUC [1, 12]: 724 µg·h/mL
- AUC(0-inf) [1, 12]: 731 µg·h/mL
- CL/F ([1]; 2000 mg/kg, Day 28, M, 2000 mg/kg PO, read-out: CL/F (CLss/F) (converted)): 46 mL/min/kg
- Cmax [1, 12]: 83.6 µg/mL
- Vd/F ([1]; 2000 mg/kg, Day 28, M, 2000 mg/kg PO, read-out: V/F (Vss/F)): 14.1 L/kg
- half-life [1, 12]: 3.53 h
- t1/2 ([1]; 2000 mg/kg): 8 05 hr
- hyperalgesia [2]: not hyperalgesic
- Cmax ([3]; 28-day pivotal dog study, at some doses): over 100 μg/mL
- Tmax ([3]; 28-day study, dog): ≤ 1 h
- half-life ([3]; both sexes, beagle, dog, in vivo, po, t1/2): ~3.5 h
- Tmax ([3]; both sexes, beagle, dog, in vivo, po, 100 and 250 mg/kg treatment groups, read-out: median tmax): 1 h
- t1/2 ([3]; both, beagle, dog, in vivo, po): 3.5 h
- Cmax ([3]; female, beagle, dog, in vivo, po, 100 mg/kg, Day 1, 100 mg/kg PO, F, read-out: Cmax): 69.3 µg/mL
- Cmax ([3]; female, beagle, dog, in vivo, po, 100 mg/kg, Day 15, 100 mg/kg PO, F, read-out: Cmax): 53 µg/mL
- Cmax ([3]; female, beagle, dog, in vivo, po, 100 mg/kg, Day 28, 100 mg/kg PO, F, read-out: Cmax): 60.8 µg/mL
- Cmax ([3]; female, beagle, dog, in vivo, po, 250 mg/kg, Day 1, 250 mg/kg PO, F, read-out: Cmax): 101 µg/mL
- Cmax ([3]; female, beagle, dog, in vivo, po, 250 mg/kg, Day 15, 250 mg/kg PO, F, read-out: Cmax): 94.6 µg/mL
- Cmax ([3]; female, beagle, dog, in vivo, po, 250 mg/kg, Day 28, 250 mg/kg PO, F, read-out: Cmax): 89.5 µg/mL
- Cmax ([3]; female, beagle, dog, in vivo, po, 400 mg/kg, Day 1, 400 mg/kg PO, F, read-out: Cmax): 129 µg/mL
- Cmax ([3]; female, beagle, dog, in vivo, po, 400 mg/kg, Day 15, 400 mg/kg PO, F, read-out: Cmax): 123 µg/mL
- Cmax ([3]; female, beagle, dog, in vivo, po, 400 mg/kg, Day 28, 400 mg/kg PO, F, read-out: Cmax): 131 µg/mL
- Cmax ([3]; male, beagle, dog, in vivo, po, 100 mg/kg, Day 1, 100 mg/kg PO, M, read-out: Cmax): 49.9 µg/mL
- Cmax ([3]; male, beagle, dog, in vivo, po, 100 mg/kg, Day 15, 100 mg/kg PO, M, read-out: Cmax): 50.4 µg/mL
- Cmax ([3]; male, beagle, dog, in vivo, po, 100 mg/kg, Day 28, 100 mg/kg PO, M, read-out: Cmax): 45 µg/mL
- Cmax ([3]; male, beagle, dog, in vivo, po, 250 mg/kg, Day 1, 250 mg/kg PO, M, read-out: Cmax): 104 µg/mL
- Cmax ([3]; male, beagle, dog, in vivo, po, 250 mg/kg, Day 15, 250 mg/kg PO, M, read-out: Cmax): 88 µg/mL
- Cmax ([3]; male, beagle, dog, in vivo, po, 250 mg/kg, Day 28, 250 mg/kg PO, M, read-out: Cmax): 105 µg/mL
- Cmax ([3]; male, beagle, dog, in vivo, po, 400 mg/kg, Day 1, 400 mg/kg PO, M, read-out: Cmax): 128 µg/mL
- Cmax ([3]; male, beagle, dog, in vivo, po, 400 mg/kg, Day 15, 400 mg/kg PO, M, read-out: Cmax): 112 µg/mL
- Cmax ([3]; male, beagle, dog, in vivo, po, 400 mg/kg, Day 28, 400 mg/kg PO, M, read-out: Cmax): 125 µg/mL
- IC50 ([4]; HEK293 cells, probe [3H]-p-aminohippurate (1 μM), 0.3-600 μM tested): > 600 µM
- transporter inhibition ([4]; OAT1): does not inhibit
